Assays:
LRH-1 (NR5A2) LBD = target: T1, LRH-1 (NR5A2) LBD (Homo sapiens, UniProt O00482); experiment: DSF specificity assay, LRH-1; format: binding
T1 construct: human LRH-1 (NR5A2) LBD (residues 291-541); hexahistidine tag with 3C protease site; made in house; host or cells: E. coli BL(21) DE3
Description: (§1) Protein Expression and Purification. Human GCNF (NR6A1) LBD (residues 248-480) and mutants F284A/F361A, human LRH-1 (NR5A2) LBD (residues 291-541), human RXRα LBD (residues 223-462), human COUP-TF I LBD (residues 184-410) and human SF-1 LBD (residues 219-461) were subcloned in pET45b(+) plasmid (Novagen) were expressed in E. coli BL(21) DE3 cells in terrific broth with 0.1 mg/mL ampicillin as 3C protease-cleavable hexahistidine-tagged fusion proteins. The bacterial culture was grown at 37° C. to an optical density of 0.8 to 1.0 at 600 nm. Protein expression was induced by adding 1 mM IPTG and was allowed to proceed for 14 h at 22° C. […]
(§2) DSF Assay. […] A total of 450 compounds (Life Chemicals) previously selected from a nuclear-receptor-biased library targeting REV-ERB were analyzed. Thermal stability was assessed on a Quantstudio 6 instrument (Biosystems) by ramping the temperature from 25° C. to 95° C. at 0.05° C./s and protein melt shifts were subsequently quantified by Boltzmann-derived melting temperature (Tm) using the Protein Thermal Shift (ThermoFisher) software. […]

[1] = system: BeWo human choriocarcinoma cells; experiment: qPCR of GCNF target gene expression in BeWo cells; format: cell-based; details: 20 μM, 24 h
Description: BeWo cells were cultured in DMEM-F12 medium (Gibco) with 10% FBS (Gembio) and plated at 75,000 cells per well in 12-well plates (Corning). 24-hours after plating, cells were treated with either DMSO, ligand 34 or ligand 80 (20 μM) at 4 wells/group. RNA was isolated 24-hours after drug treatment and cDNA was synthesized for the QPCR assays using Bio-Rad iScript cDNA synthesis kit per manufacturer's protocol. Expression was analyzed by QPCR using a custom array plate (Bio-Rad PrimePCR) per manufacturer's protocol; n=4 was used for cell-based assays and plotted as mean±SEM.

[2] = target: T2, GCNF LBD with NCoR ID1 corepressor peptide (Homo sapiens, UniProt Q15406); experiment: FP ligand titration assay, NCoR ID1 peptide recruitment; format: biochemical; details: 20 μM GCNF LBD
T2 construct: Human GCNF (NR6A1) LBD (residues 248-480); made in house; host or cells: E. coli BL(21) DE3
T2 sequence (Q15406 248-480): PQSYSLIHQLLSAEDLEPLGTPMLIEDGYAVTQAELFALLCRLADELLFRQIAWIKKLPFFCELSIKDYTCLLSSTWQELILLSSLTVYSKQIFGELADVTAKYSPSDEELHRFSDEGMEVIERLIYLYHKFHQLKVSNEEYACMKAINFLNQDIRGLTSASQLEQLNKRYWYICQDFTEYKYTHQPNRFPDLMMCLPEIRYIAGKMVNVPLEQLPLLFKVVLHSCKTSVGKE
Description: FP Assay. Fluorescence polarization (FP) assays were performed in triplicate on a 384-well Corning 3820 black opaque plate using a Biotek Synergy Neo2 HTS multimode microplate reader at excitation and emission wavelengths of 485 nm and 538 nm, respectively. Data were analyzed and plotted using GraphPad Prism as mean±SEM.
For the FP ligand titration assay, the aforementioned N-terminus fluorescein-tagged corepressor peptides were diluted to 500 nM from a 100 μM DMSO stock in the presence of 20 μM GCNF LBD and ligand concentration points 30, 20, 13, 9, 6, 4, 2.6, 1.7 and 0 μM in assay buffer containing 50 mM HEPES (pH 7.5), 50 mM KCl, 5 mM TCEP, 0.5 mM EDTA and 0.005% Tween20. The relative polarization was plotted against log of ligand concentration (μM) and the half maximal effective concentration (EC50) values were derived via sigmoidal fit.

[3] = system: i3 neurons differentiated from induced pluripotent stem cells (iPSCs); experiment: iPSC differentiation to i3 neurons, morphology; format: cell-based; parameters: neurite outgrowth: dose or concentration left out as unconfirmed; details: ligand treatment before and during differentiation
Description: iPSC Differentiation to Neurons. For growing neurons from iPSC cells, the method described by Femandopulle were employed (Femandopulle et al., 2018). Briefly, cells were treated with doxycycline to turn on expression of Neurogenin-2 (NGN2), which irreversibly sets these cells on the path of neuronal differentiation. The cells were treated with doxycycline for 3 days (changing media every day), and then re-plate the cells onto new plates coated with PLO. For each time point, 21 samples were prepared (DMSO and ligands 34 and 80 at different concentrations, in triplicate).
An overview of the experiment timeline is shown as well: • Day 0: Plate iPSC on matrigel-coated 12-well plates • Day 2: Treat cells −/+ ligands in iPSC media • Day 3: Refeed cells induction media +Doxycycline −/+ ligands to start neuronal differentiation (Day 0 of differentiation) • Day 4: Refeed cells induction media +Doxycycline −/+ ligands (Day 1 of differentiation) • Day 5: Refeed cells induction media +Doxycycline −/+ ligands (Day 2 of differentiation) • Day 6: Take pictures; Refeed cells neuronal media −/+ ligands (Day 3 of differentiation) • Day 7: Collect cells for RNA/qPCR (Day 4 of differentiation)

SF-1 (NR5A1) LBD = target: T3, SF-1 (NR5A1) LBD (Homo sapiens, UniProt Q13285); experiment: DSF specificity assay, SF-1; format: binding
T3 construct: human SF-1 LBD (residues 219-461); hexahistidine tag with 3C protease site; made in house; host or cells: E. coli BL(21) DE3
Description: as §1, §2

T3 sequence (Q13285 219-461): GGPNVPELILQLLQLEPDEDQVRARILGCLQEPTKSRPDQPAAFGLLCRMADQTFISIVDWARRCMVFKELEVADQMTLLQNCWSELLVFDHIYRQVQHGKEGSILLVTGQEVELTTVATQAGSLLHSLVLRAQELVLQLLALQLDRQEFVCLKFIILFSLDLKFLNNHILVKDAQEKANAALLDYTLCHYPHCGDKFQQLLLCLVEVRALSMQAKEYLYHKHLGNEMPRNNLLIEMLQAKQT
T1 sequence (O00482 291-541): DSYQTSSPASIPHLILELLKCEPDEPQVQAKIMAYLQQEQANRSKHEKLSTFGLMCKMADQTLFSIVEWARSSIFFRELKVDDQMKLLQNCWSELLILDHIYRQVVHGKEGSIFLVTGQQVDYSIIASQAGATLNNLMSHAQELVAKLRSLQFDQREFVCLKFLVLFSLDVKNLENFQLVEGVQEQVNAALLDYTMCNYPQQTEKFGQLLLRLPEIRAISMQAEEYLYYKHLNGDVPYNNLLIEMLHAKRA

| SMILES | change of Tm of LRH-1 LBD (LRH-1 (NR5A2) LBD) | GCNF gene expression [1] | NR5A1 (SF-1) expression [1] | NR5A2 (LRH-1) expression [1] | Nanog expression [1] | Oct4 expression [1] | carnitine palmitoyltransferase 1a (CPT1a) expression [1] | diglyceride acyltransferase-1 (DGAT1) expression [1] | diglyceride acyltransferase-2 (DGAT2) expression [1] | fatty acid synthase (FASN) expression [1] | phosphoenolpyruvate carboxykinase (PEPCK) expression [1] | effect on recruitment of NCoR ID1 to GCNF [2] | area of cell bodies [3] | neurite branching [3] | neurite outgrowth [3] | change of Tm of SF-1 LBD (SF-1 (NR5A1) LBD) |
| --- | --- | --- | --- | --- | --- | --- | --- | --- | --- | --- | --- | --- | --- | --- | --- | --- |
| Cc1ccc(-n2ncc3c(N4CCOCC4)nc(NCc4ccco4)nc32)cc1 [Ligand 34, N-[(furan-2-yl)methyl]-1-(4-methylphenyl)-4-(morpholin-4-yl)-1H-pyrazolo[3,4-d]pyrimidin-6-amine] | did not significantly change | not affected | significantly promoted the expression | significantly promoted the expression | significantly promoted the expression | significantly promoted the expression | significantly increased | significantly promoted the expression | no significant effect | no significant effect | upregulated | did not substantially alter | remain unchanged | more extensive branching | significant increase of neurite outgrowth | did not significantly change |
| O=C(Cn1cc(S(=O)(=O)c2ccccc2)c2ccccc21)N1CCc2ccccc21 [Ligand 80, 2-[3-(benzenesulfonyl)-1H-indol-1-yl]-1-(2,3-dihydro-1H-indol-1-yl)ethan-1-one] | did not significantly change | not affected | but not 80, significantly promoted the expression |  |  | but not 80, significantly promoted the expression | no effect | but not 80, significantly promoted the expression | no significant effect | no significant effect | upregulated | did not substantially alter | remain unchanged | more extensive branching | significant increase of neurite outgrowth | did not significantly change |

From patent publication US12478628B2, “Germ cell nuclear factor ligands and methods of use thereof” (Saint Louis University, priority 2020, dated 2025)
